Assay results as given in ChEMBL document CHEMBL1147970, “Enzymatic synthesis of arbutin undecylenic acid ester and its inhibitory effect on melanin synthesis” (2007).
Activity calls are given as the source filed them. The calls are words filed in the database; no cut-off is given here.

System: B16
Assay: Antimelanogenic activity in mouse B16 cells at 0.1 mM after 6 days relative to control
Type: functional

| SMILES | Activity |
| --- | --- |
| OC[C@H]1O[C@@H](Oc2ccc(O)cc2)[C@H](O)[C@@H](O)[C@@H]1O | inactive |
| C=CCCCCCCCCC(=O)OC[C@H]1O[C@@H](Oc2ccc(O)cc2)[C@H](O)[C@@H](O)[C@@H]1O | 30% |
